Experimental data reported in patent publication US6204282A, “Benzimidazole compounds that are vitronectin receptor antagonists” (Schering Corporation, priority 1999, dated 2001).

target: αllbβ3 receptor (Homo sapiens, UniProt P05106+P08514); assay: similar competitive assay with purified αllbβ3 receptor and 125I-echistatin (specificity index versus αvβ3); assay type: binding; settings: IC50 αllbβ3 / IC50 αvβ3
Excerpt: The specificity index, which is a measure of the relative binding affinity for αvβ3 versus αllbβ3, may be determined by dividing the IC50 value for αllbβ3by the IC50 value for αvβ3.

αllbβ3 receptor, sequence (P08514 32-1039): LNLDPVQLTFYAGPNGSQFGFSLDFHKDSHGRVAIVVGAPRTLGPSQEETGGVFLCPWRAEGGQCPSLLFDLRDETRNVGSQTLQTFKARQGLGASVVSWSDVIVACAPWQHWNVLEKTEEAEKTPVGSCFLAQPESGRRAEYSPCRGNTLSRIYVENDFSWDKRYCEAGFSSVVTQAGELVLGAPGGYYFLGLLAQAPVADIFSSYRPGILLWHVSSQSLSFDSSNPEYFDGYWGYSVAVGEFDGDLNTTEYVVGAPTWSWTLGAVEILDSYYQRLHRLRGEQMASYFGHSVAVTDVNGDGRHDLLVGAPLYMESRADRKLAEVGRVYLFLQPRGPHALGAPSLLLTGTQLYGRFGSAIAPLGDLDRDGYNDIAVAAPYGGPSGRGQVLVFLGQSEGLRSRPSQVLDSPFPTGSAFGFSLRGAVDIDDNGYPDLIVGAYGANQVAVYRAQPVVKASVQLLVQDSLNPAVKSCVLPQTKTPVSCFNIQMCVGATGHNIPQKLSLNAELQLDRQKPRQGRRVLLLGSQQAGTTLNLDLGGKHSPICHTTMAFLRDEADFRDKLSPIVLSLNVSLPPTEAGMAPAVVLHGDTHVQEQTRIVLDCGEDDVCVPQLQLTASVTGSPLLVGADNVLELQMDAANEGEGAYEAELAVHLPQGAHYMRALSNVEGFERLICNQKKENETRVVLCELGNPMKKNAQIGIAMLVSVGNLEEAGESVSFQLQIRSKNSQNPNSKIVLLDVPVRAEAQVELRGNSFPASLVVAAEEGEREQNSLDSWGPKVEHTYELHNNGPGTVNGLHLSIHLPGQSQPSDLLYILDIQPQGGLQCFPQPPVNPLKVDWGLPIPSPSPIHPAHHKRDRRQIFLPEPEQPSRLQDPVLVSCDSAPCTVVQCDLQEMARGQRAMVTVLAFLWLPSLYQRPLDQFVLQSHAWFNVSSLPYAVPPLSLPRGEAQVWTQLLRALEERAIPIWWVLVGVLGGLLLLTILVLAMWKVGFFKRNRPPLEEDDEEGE
αllbβ3 receptor, sequence (P05106 27-788): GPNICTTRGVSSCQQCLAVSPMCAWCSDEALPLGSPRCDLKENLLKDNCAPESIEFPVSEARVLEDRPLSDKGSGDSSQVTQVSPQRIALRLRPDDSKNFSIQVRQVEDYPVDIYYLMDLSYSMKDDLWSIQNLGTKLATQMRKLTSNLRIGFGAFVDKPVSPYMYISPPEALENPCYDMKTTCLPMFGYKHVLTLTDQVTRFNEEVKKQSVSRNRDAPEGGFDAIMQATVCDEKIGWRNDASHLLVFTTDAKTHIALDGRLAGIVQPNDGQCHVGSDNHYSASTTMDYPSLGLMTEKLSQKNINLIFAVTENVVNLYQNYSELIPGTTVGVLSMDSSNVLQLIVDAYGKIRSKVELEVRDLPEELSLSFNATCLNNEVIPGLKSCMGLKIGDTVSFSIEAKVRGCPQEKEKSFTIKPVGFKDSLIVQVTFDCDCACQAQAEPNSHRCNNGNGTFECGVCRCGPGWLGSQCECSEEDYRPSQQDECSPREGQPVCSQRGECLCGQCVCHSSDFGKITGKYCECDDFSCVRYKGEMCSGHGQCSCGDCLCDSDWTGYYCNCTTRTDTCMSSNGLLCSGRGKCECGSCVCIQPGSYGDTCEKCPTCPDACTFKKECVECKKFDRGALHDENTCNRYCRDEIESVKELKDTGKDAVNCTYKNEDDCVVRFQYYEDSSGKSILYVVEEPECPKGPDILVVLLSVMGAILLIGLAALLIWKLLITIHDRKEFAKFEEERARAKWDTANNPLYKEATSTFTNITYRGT

Point of comparison: `CCOC(=O)[C@H](CC(C)C)NC(=O)N(Cc1ccc(C(=O)NC[C@H](NC(=O)OCc2ccccc2)C(=O)O)cc1)Cc1nc2ccccc2[nH]1` [Example 5-53], “SPECIFICITY αIIb β3/αvβ3 (specificity index)” value 483. Against it:
- CC(C)C(=O)N(Cc1ccc(C(=O)NC[C@H](NC(=O)OCc2ccccc2)C(=O)O)cc1)Cc1nc2ccccc2[nH]1 [Example 5-13] — lower, 38
- O=C(N[C@@H](CNC(=O)c1ccc(CN(Cc2nc3ccccc3[nH]2)C(=O)CCC2CCCC2)cc1)C(=O)O)OCc1ccccc1 [Example 5-14] — lower, 117
- O=C(N[C@@H](CNC(=O)c1ccc(CN(Cc2nc3ccccc3[nH]2)C(=O)C2CCCCC2)cc1)C(=O)O)OCc1ccccc1 [Example 5-15] — lower, 95
- O=C(N[C@@H](CNC(=O)c1ccc(CN(Cc2nc3ccccc3[nH]2)C(=O)CCc2ccccc2)cc1)C(=O)O)OCc1ccccc1 [Example 5-16] — higher, 899
- CCOC(=O)CCC(=O)N(Cc1ccc(C(=O)NC[C@H](NC(=O)OCc2ccccc2)C(=O)O)cc1)Cc1nc2ccccc2[nH]1 [Example 5-17] — lower, 76
- CC(=O)OC(C(=O)N(Cc1ccc(C(=O)NC[C@H](NC(=O)OCc2ccccc2)C(=O)O)cc1)Cc1nc2ccccc2[nH]1)c1ccccc1 (stereo partly shown) [Example 5-18] — lower, 82
- O=C(N[C@@H](CNC(=O)c1ccc(CN(Cc2nc3ccccc3[nH]2)C(=O)COc2ccccc2)cc1)C(=O)O)OCc1ccccc1 [Example 5-19] — lower, 34
- CCOC(=O)N(Cc1ccc(C(=O)NC[C@H](NC(=O)OCc2ccccc2)C(=O)O)cc1)Cc1nc2ccccc2[nH]1 [Example 5-20] — lower, 15
- COc1ccc(OC(=O)N(Cc2ccc(C(=O)NC[C@H](NC(=O)OCc3ccccc3)C(=O)O)cc2)Cc2nc3ccccc3[nH]2)cc1 [Example 5-21] — lower, 41
- O=C(N[C@@H](CNC(=O)c1ccc(CN(Cc2nc3ccccc3[nH]2)C(=O)C2CC2c2ccccc2)cc1)C(=O)O)OCc1ccccc1 (stereo partly shown) [Example 5-22] — lower, 26
- CSCC(=O)N(Cc1ccc(C(=O)NC[C@H](NC(=O)OCc2ccccc2)C(=O)O)cc1)Cc1nc2ccccc2[nH]1 [Example 5-23] — lower, 22
- CN(C)CC(=O)N(Cc1ccc(C(=O)NC[C@H](NC(=O)OCc2ccccc2)C(=O)O)cc1)Cc1nc2ccccc2[nH]1 [Example 5-24] — lower, 14
- COCCC(=O)N(Cc1ccc(C(=O)NC[C@H](NC(=O)OCc2ccccc2)C(=O)O)cc1)Cc1nc2ccccc2[nH]1 [Example 5-25] — lower, 52
- CCOCC(=O)N(Cc1ccc(C(=O)NC[C@H](NC(=O)OCc2ccccc2)C(=O)O)cc1)Cc1nc2ccccc2[nH]1 [Example 5-26] — lower, 91
- O=C(N[C@@H](CNC(=O)c1ccc(CN(Cc2nc3ccccc3[nH]2)C(=O)Nc2ccccc2)cc1)C(=O)O)OCc1ccccc1 [Example 5-27] — lower, 481
- O=C(N[C@@H](CNC(=O)c1ccc(CN(Cc2nc3ccccc3[nH]2)C(=O)NC2CCCCC2)cc1)C(=O)O)OCc1ccccc1 [Example 5-28] — higher, 1136
- O=C(N[C@@H](CNC(=O)c1ccc(CN(Cc2nc3ccccc3[nH]2)C(=O)NCc2ccccc2)cc1)C(=O)O)OCc1ccccc1 [Example 5-29] — lower, 144
- O=C(N[C@@H](CNC(=O)c1ccc(CN(Cc2nc3ccccc3[nH]2)C(=S)NCCc2ccccc2)cc1)C(=O)O)OCc1ccccc1 [Example 5-31] — lower, 80
- CCOc1ccc(NC(=O)N(Cc2ccc(C(=O)NC[C@H](NC(=O)OCc3ccccc3)C(=O)O)cc2)Cc2nc3ccccc3[nH]2)cc1 [Example 5-32] — lower, 151
- CN(Cc1ccc(C(=O)NC[C@H](NC(=O)OCc2ccccc2)C(=O)O)cc1)Cc1nc2ccccc2[nH]1 [Example 5-33] — lower, 128
- CC(C)(C)NC(=O)N(Cc1ccc(C(=O)NC[C@H](NC(=O)OCc2ccccc2)C(=O)O)cc1)Cc1nc2ccccc2[nH]1 [Example 5-34] — lower, 421
- O=C(N[C@@H](CNC(=O)c1ccc(CN(Cc2nc3ccccc3[nH]2)C(=O)Nc2ccc(Cl)cc2)cc1)C(=O)O)OCc1ccccc1 [Example 5-35] — lower, 240
- CC(NC(=O)N(Cc1ccc(C(=O)NC[C@H](NC(=O)OCc2ccccc2)C(=O)O)cc1)Cc1nc2ccccc2[nH]1)c1cccc2ccccc12 (stereo partly shown) [Example 5-36] — lower, 129
- O=C(N[C@@H](CNC(=O)c1ccc(CN(Cc2nc3ccccc3[nH]2)C(=O)Nc2cccc3ccccc23)cc1)C(=O)O)OCc1ccccc1 [Example 5-37] — lower, 203
- O=C(N[C@@H](CNC(=O)c1ccc(CN(Cc2nc3ccccc3[nH]2)C(=O)Nc2ccc(-c3ccccc3)cc2)cc1)C(=O)O)OCc1ccccc1 [Example 5-38] — lower, 49
- CCCNC(=O)N(Cc1ccc(C(=O)NC[C@H](NC(=O)OCc2ccccc2)C(=O)O)cc1)Cc1nc2ccccc2[nH]1 [Example 5-39] — lower, 223
- O=C(N[C@@H](CNC(=O)c1ccc(CN(Cc2nc3ccccc3[nH]2)C(=O)NC23CC4CC(CC(C4)C2)C3)cc1)C(=O)O)OCc1ccccc1 [Example 5-40] — lower, 288
- O=C(N[C@@H](CNC(=O)c1ccc(CN(Cc2nc3ccccc3[nH]2)C(=O)N2CCOCC2)cc1)C(=O)O)OCc1ccccc1 [Example 5-42] — lower, 39
- CCNC(=O)N(Cc1ccc(C(=O)NC[C@H](NC(=O)OCc2ccccc2)C(=O)O)cc1)Cc1nc2ccccc2[nH]1 [Example 5-43] — higher, 585
- O=C(N[C@@H](CNC(=O)c1ccc(CN(Cc2nc3ccccc3[nH]2)C(=O)NS(=O)(=O)c2ccc(Cl)cc2)cc1)C(=O)O)OCc1ccccc1 [Example 5-44] — lower, 66.3
- CCOC(=O)CNC(=O)N(Cc1ccc(C(=O)NC[C@H](NC(=O)OCc2ccccc2)C(=O)O)cc1)Cc1nc2ccccc2[nH]1 [Example 5-45, N^3-[4-[(benzimidazol-2-yl)methyl][[(ethoxycarbonylmethyl)amino]-carbonyl]aminomethylbenzoyl]-N^2 -Cbz-L-2,3-diaminopropionic acid] — higher, 1333
- COc1ccc(NC(=S)N(Cc2ccc(C(=O)NC[C@H](NC(=O)OCc3ccccc3)C(=O)O)cc2)Cc2nc3ccccc3[nH]2)cc1 [Example 5-46] — higher, 1065
- CCOC(=O)c1ccc(NC(=O)N(Cc2ccc(C(=O)NC[C@H](NC(=O)OCc3ccccc3)C(=O)O)cc2)Cc2nc3ccccc3[nH]2)cc1 [Example 5-47] — higher, 1252
- CCOC(=O)[C@H](CCSC)NC(=O)N(Cc1ccc(C(=O)NC[C@H](NC(=O)OCc2ccccc2)C(=O)O)cc1)Cc1nc2ccccc2[nH]1 [Example 5-48] — higher, 2028
- O=C(N[C@@H](CNC(=O)c1ccc(CN(Cc2nc3ccccc3[nH]2)C(=O)Nc2ccc(F)cc2)cc1)C(=O)O)OCc1ccccc1 [Example 5-49] — higher, 504
- CCOC(=O)[C@H](C)NC(=O)N(Cc1ccc(C(=O)NC[C@H](NC(=O)OCc2ccccc2)C(=O)O)cc1)Cc1nc2ccccc2[nH]1 [Example 5-50] — higher, 805
- CCOC(=O)[C@@H](NC(=O)N(Cc1ccc(C(=O)NC[C@H](NC(=O)OCc2ccccc2)C(=O)O)cc1)Cc1nc2ccccc2[nH]1)C(C)C [Example 5-51] — higher, 1210
- CCOC(=O)[C@H](Cc1ccccc1)NC(=O)N(Cc1ccc(C(=O)NC[C@H](NC(=O)OCc2ccccc2)C(=O)O)cc1)Cc1nc2ccccc2[nH]1 [Example 5-52] — lower, 448
- CCOC(=O)CCNC(=O)N(Cc1ccc(C(=O)NC[C@H](NC(=O)OCc2ccccc2)C(=O)O)cc1)Cc1nc2ccccc2[nH]1 [Example 5-54] — lower, 413
- O=C(N[C@@H](CNC(=O)c1ccc(CN(Cc2nc3ccccc3[nH]2)C(=S)NC2CCCCC2)cc1)C(=O)O)OCc1ccccc1 [Example 5-55] — higher, 620
- COCCNC(=S)N(Cc1ccc(C(=O)NC[C@H](NC(=O)OCc2ccccc2)C(=O)O)cc1)Cc1nc2ccccc2[nH]1 [Example 5-56] — higher, 514
- O=C(N[C@H](CNC(=O)c1ccc(CNCc2nc3ccccc3[nH]2)cc1)C(=O)O)OCc1ccccc1 [Example 5-57] — lower, 1.43
- COCC(=O)N(Cc1ccc(C(=O)NC[C@@H](NC(=O)OCc2ccccc2)C(=O)O)cc1)Cc1nc2ccccc2[nH]1 [Example 5-58] — lower, 46
- O=C(N[C@H](CNC(=O)c1ccc(CN(Cc2nc3ccccc3[nH]2)C(=O)CCc2ccccc2)cc1)C(=O)O)OCc1ccccc1 [Example 5-59] — lower, 65
- CC(C)(C)OC(=O)N[C@@H](CNC(=O)c1ccc(CNCc2nc3ccccc3[nH]2)cc1)C(=O)O [Example 5-60] — lower, 90
- CC(=O)N(Cc1ccc(C(=O)NC[C@H](NC(=O)OC(C)(C)C)C(=O)O)cc1)Cc1nc2ccccc2[nH]1 [Example 5-61] — lower, 324
- COCC(=O)N(Cc1ccc(C(=O)NC[C@H](NC(=O)OC(C)(C)C)C(=O)O)cc1)Cc1nc2ccccc2[nH]1 [Example 5-62] — lower, 419
- CC(C)(C)OC(=O)N[C@@H](CNC(=O)c1ccc(CN(Cc2nc3ccccc3[nH]2)C(=O)CCc2ccccc2)cc1)C(=O)O [Example 5-63] — lower, 293
- CC(C)(C)OC(=O)N[C@@H](CNC(=O)c1ccc(CN(Cc2nc3ccccc3[nH]2)C(=O)CCC2CCCC2)cc1)C(=O)O [Example 5-64] — higher, 499
- O=C(O)CC(NC(=O)c1ccc(CNCc2nc3ccccc3[nH]2)cc1)c1ccccc1 (stereo not shown) [Example 5-65] — lower, 0.4
- CC(=O)N(Cc1ccc(C(=O)NC(CC(=O)O)c2ccccc2)cc1)Cc1nc2ccccc2[nH]1 (stereo not shown) [Example 5-66] — lower, 0.4
